Source: patent US11992473B2, “Compositions and methods for diagnosis and treatment of conditions related to the quality of aging and longevity” (Epitracker, Inc., priority 2018, dated 2024)

Columns and labels:
Assay type in all cases: cell-based, human
[1] = system: Venular endothelial cells, peripheral blood mononuclear cells; test: BioMAP Diversity PLUS SAg system (T cell stimulation, Th1 type chronic inflammation); details: for Significant log10 reduction compared to nontreated controls: CD40: SAg system
Experimental: (§1) This study examined activities of small molecules discovered in dolphin serum that had protective profiles against diseases of aging which can impact quality of life and longevity. These molecules were tested across 12 human primary cell-based systems as part of DiscoverX's BioMAP Diversity Plus program. These systems are designed to model complex human tissue and disease biology of the vasculature, skin, lung, and inflammatory tissues. Quantitative measurements of biomarker activities across this broad panel, along with comparative analysis of biological activities of known bioactive agents were used to predict and compare the efficacy and function of the four compounds. Compounds were tested at four concentrations (740 nm and 2.2, 6.7 and 20 μM).
(§2) BioMAP panels consist of human primary cell-based systems designed to model different aspects of the human body in an in vitro format. The 12 systems in the Diversity PLUS panel allow test agent characterization in an unbiased way across a broad set of systems modeling various human disease states. BioMAP systems are constructed with one or more primary cell types from healthy human donors, with stimuli (such as cytokines or growth factors) added to capture relevant signaling networks that naturally occur in human tissue or pathological conditions. Vascular biology is modeled in both a Th1 (3C system) and a Th2 (4H system) inflammatory environment, as well as in a Th1 inflammatory state specific to arterial smooth muscle cells (CASM3C system). Additional systems recapitulate aspects of the systemic immune response including monocyte-driven Th1 inflammation (LPS system) or T cell stimulation (SAg system), chronic Th1 inflammation driven by macrophage activation (lMphg system) and the T cell-dependent activation of B cells that occurs in germinal centers (BT system). The BE3C system (Th1) and the BF4T system (Th2) represent airway inflammation of the lung, while the MyoF system models myofibroblast-lung tissue remodeling. Lastly, skin biology is addressed in the KF3CT system modeling Th1 cutaneous inflammation and the HDF3CGF system modeling wound healing.
(§3) Each test agent generates a signature BioMAP profile that is created from the changes in protein biomarker readouts within individual system environments. Biomarker readouts (7-17 per system) are selected for therapeutic and biological relevance, are predictive for disease outcomes or specific drug effects and are validated using agents with known mechanism of action (MoA). Each readout is measured quantitatively by immune-based methods that detect protein (e.g., ELISA) or functional assays that measure proliferation and viability. BioMAP readouts are diverse and include cell surface receptors, cytokines, chemokines, matrix molecules and enzymes. In total, the Diversity PLUS panel contains 148 biomarker readouts that capture biological changes that occur within the physiological context of the particular BioMAP system. Specific BioMAP activities have been correlated to in vivo biology, and multiparameter BioMAP profiles have been used to distinguish compounds based on MoA and target selectivity across diverse physiological systems.
(§4) The Diversity PLUS panel allows test agent characterization in an unbiased way across a broad set of systems modeling various human disease states. These systems are designed to model complex human tissue and disease biology of the vasculature, skin, lung, and inflammatory tissues. Quantitative measurements of 148 biomarker activities across this broad panel, along with comparative analysis of biological activities from known bioactive agents, were used to predict and compare the efficacy and function of each selected compound at four concentrations (740 nm and 2.2, 6.7 and 20 μM). […]

[2] = system: Macrophages, venular endothelial cells; test: BioMAP Diversity PLUS lMphg system (Th1 type chronic inflammation, macrophage activation); details: /Mphg system
Experimental: as §1, §2, §3, §4

[3] = system: Bronchial epithelial cells; test: BioMAP Diversity PLUS BE3C system (Th1 type lung inflammation)
Experimental: as §1, §2, §3, §4

[4] = system: Peripheral blood mononuclear cells, B cells; test: BioMAP Diversity PLUS BT system (T cell dependent B cell activation)
Experimental: as §1, §2
(§5) Each test agent generates a signature BioMAP profile that is created from the changes in protein biomarker readouts within individual system environments. Biomarker readouts (7-17 per system) are selected for therapeutic and biological relevance, are predictive for disease outcomes or specific drug effects and are validated using agents with known mechanism of action (MoA). Each readout is measured quantitatively by immune-based methods that detect protein (e.g., ELISA) or functional assays that measure proliferation and viability. BioMAP readouts are diverse and include cell surface receptors, cytokines, chemokines, matrix molecules and enzymes.
(§6) The Diversity PLUS panel allows test agent characterization in an unbiased way across a broad set of systems modeling various human disease states. These systems are designed to model complex human tissue and disease biology of the vasculature, skin, lung, and inflammatory tissues.
(§7) BioMAP systems are constructed with one or more primary cell types from healthy human donors, with stimuli (such as cytokines or growth factors) added to capture relevant signaling networks that naturally occur in human tissue or pathological conditions. Vascular biology is modeled in both a Th1 (3C system) and a Th2 (4H system) inflammatory environment, as well as in a Th1 inflammatory state specific to arterial smooth muscle cells (CASM3C system). Additional systems recapitulate aspects of the systemic immune response including monocyte-driven Th1 inflammation (LPS system) or T cell stimulation (SAg system), chronic Th1 inflammation driven by macrophage activation (lMphg system) and the T cell-dependent activation of B cells that occurs in germinal centers (BT system).

[5] = system: Dermal fibroblasts; test: BioMAP Diversity PLUS HDF3CGF system (wound healing and matrix/tissue remodeling); details: HDF3CGF system
Experimental: as §1, §2, §5, §6, §7

[6] = system: Venular endothelial cells, peripheral blood mononuclear cells; test: BioMAP Diversity PLUS LPS system (Th1 type chronic inflammation, monocyte activation)
Experimental: as §1, §2, §5, §6, §7

[7] = system: Coronary artery smooth muscle cells; test: BioMAP Diversity PLUS CASM3C system (Th1 type vascular inflammation)
Experimental: as §1, §2, §5, §6, §7

In the case of C=CCCCCCCCCC(=O)O [10-undecanoate (C11:1n1), 10-undecanoate], the “Significant log10 reduction compared to nontreated controls: CD40” value (“Significant log10 reduction … CD40” below) ([1]; 0.7 μM) is reported as −0.07 log10, the “Significant log10 reduction … CD40” value ([1]; 2.2 μM) is reported as −0.14 log10 and the “Significant log10 reduction … CD40” value ([1]; 6.7 μM) is reported as −0.09 log10. For the same compound, the CD40 ([1]; human cell system mimicking T-cell driven chronic inflammation and autoimmune diseases, 740 nm, 2.2 μM, and 6.7 μM (FIG. 3)) was “lowered”, the T cell proliferation ([1]; human cell system mimicking T-cell driven chronic inflammation and autoimmune diseases, concentrations ranging from 740 nm to 6.7 μM (FIG. 2)) was “decreased” and the “Significant log10 reduction compared to nontreated controls: Secreted interleukin 10 (IL-10)” value ([2]; 20.0 μM) was −0.21 log10. For the same compound, the “Significant log10 reduction compared to nontreated controls: Tissue plasminogen activator (tPA)” value (“Significant log10 reduction … (tPA)” below) ([3]; 2.2 μM) was −0.08 log10, the “Significant log10 reduction … (tPA)” value ([3]; 6.7 μM) was −0.11 log10 and the “Significant log10 reduction … (tPA)” value ([3]; 20.0 μM) was −0.12 log10. For the same compound, the “Significant log10 reduction compared to nontreated controls: Secreted interleukin 17A (IL-17A)” value ([4]; BT system, 2.2 μM) was −0.25 log10, the “Significant log10 reduction compared to nontreated controls: Secreted interleukin 17A (IL-17A)” value ([4]; BT system, 20.0 μM) was −0.20 log10 and the “Significant log10 reduction compared to nontreated controls: Secreted tumor necrosis factor alpha (TNFα)” value ([4]; BT system, 20.0 μM) was −0.12 log10. The “interleukin 17A (IL-17A)” value ([4]; human cell system mimicking asthma, autoimmunity and allergies (FIG. 5)) was “lowered”, the “Significant log10 reduction compared to nontreated controls: Macrophage colony-stimulating factor (M-CSF)” value ([5]; 0.7 μM) was −0.11 log10 and the “Significant log10 reduction compared to nontreated controls: Macrophage colony-stimulating factor (M-CSF)” value ([5]; 2.2 μM) was −0.07 log10. The “Significant log10 reduction compared to nontreated controls: Secreted prostaglandin E2 (PGE2)” value (shortened to “Significant log10 reduction … (PGE2)”) ([6]; LPS system, 0.7 μM) was −0.11 log10, the “Significant log10 reduction … (PGE2)” value ([6]; LPS system, 2.2 μM) was −0.08 log10 and the “Significant log10 reduction … (PGE2)” value ([6]; LPS system, 6.7 μM) was −0.20 log10. The “Significant log10 reduction … CD40” value ([6]; LPS system, 20.0 μM) was −0.11 log10 and the “secretion of prostaglandin E2 (PGE2)” value ([6]; human cell system mimicking T-cell and monocyte driven chronic inflammation and cardiovascular diseases (FIG. 4)) was “lowered”.
In the case of NC(=O)CC[C@H](NC(=O)CC[C@H](N)C(=O)O)C(=O)O [Gamma-glutamylglutamine], the “Significant log10 reduction compared to nontreated controls: Vascular cell adhesion molecule 1 (VCAM-1)” value ([7]; CASM3C system (as aligned in the table), 20.0 μM) is reported as −0.15 log10, the “Significant log10 reduction compared to nontreated controls: Serum amyloid A” value ([7]; CASM3C system, 6.7 μM) is reported as −0.11 log10 and the “Significant log10 reduction compared to nontreated controls: Monocyte chemoattractant protein 1 (MCP-1)” value ([2]; 0.7 μM) is reported as −0.18 log10. For the same compound, the “Significant log10 reduction compared to nontreated controls: Monocyte chemoattractant protein 1 (MCP-1)” value ([2]; 2.2 μM) was −0.10 log10, the “Significant log10 reduction compared to nontreated controls: Interleukin 1 alpha (IL-1α)” value ([2]; 20.0 μM) was −0.16 log10 and the “Significant log10 reduction compared to nontreated controls: Secreted interleukin 6 (IL-6)” value ([4]; BT system, 20.0 μM) was −0.13 log10. For the same compound, the “Significant log10 reduction compared to nontreated controls: Collagen III” value ([5]; 20.0 μM) was −0.10 log10.
